Test results published in patent US20140005163A1 (NOVARTIS AG, priority 2010, published 2014).

Tests used:
Assay type in all cases: biochemical
PI3K alpha = target: T1, PI3K alpha (Homo sapiens, UniProt P42336); test: PI3K alpha kinase assay (Kinase-Glo luminescence)
T1 construct: p85(iSH2) fusion partner (see partner chain) (N); His tag (C); made in house; host or cells: baculovirus; Tn5 (Trichoplusia ni) or TiniPro insect cells
Summary of the method: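 Enzyme 10 nM PI3Kα EMV B1075; ATP 1 μM; PI 10 μg/mL; Tris-HCl pH 7.5 10 mM, MgCl2 3 mM, NaCl 50 mM, CHAPS 0.05%, DTT 1 mM; 60 min RT; Kinase-Glo luminescence; 4-parameter IC50 fit, 8 concentrations, single points.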

PI3K delta = target: T2, PI3K delta (Homo sapiens, UniProt O00329); test: PI3K delta kinase assay (Kinase-Glo luminescence)
T2 construct: for the full-length p110-d subunit are generated and fused by overlapping PCR; p85(iSH2) fusion partner (see partner chain) (N); His tag (C); made in house; host or cells: baculovirus; Tn5 (Trichoplusia ni) or TiniPro insect cells
Summary of the method: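 Lipid kinase activity of a His-tagged p110δ full-length/p85 iSH2 fusion (10 nM) toward bovine liver phosphatidylinositol (10 μg/mL) at 1 μM ATP, pH 7.5, 60 min, room temperature. ATP consumption is quantified by luciferase-based luminescence. Four-parameter logistic fitting gives IC50.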

PI3K gamma = target: T3, PI3K gamma (Homo sapiens, UniProt P48736); test: PI3K gamma kinase assay (Kinase-Glo luminescence)
T3 construct: His tag (C); made in house; host or cells: baculovirus (pVL1393); Tn5 or TiniPro insect cells; construct from Roger Williams lab, MRC LMB
Summary of the method: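 Luminescent ATP-depletion (Kinase-Glo) assay with 150 nM PI3Kγ, 1 μM ATP and 10 μg/mL phosphatidylinositol in 10 mM Tris-HCl pH 7.5, 3 mM MgCl2, 50 mM NaCl, 0.05% CHAPS, 1 mM DTT; 120 min at room temperature. Eight-point dilutions; IC50 by four-parameter logistic fit.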

PI3K beta = target: T4, PI3K beta (Homo sapiens, UniProt P42338); test: PI3K beta kinase assay (Kinase-Glo luminescence)
T4 construct: for the full-length p110-b subunit are generated and fused by overlapping PCR; p85(iSH2) fusion partner (see partner chain) (N); His tag (C); made in house; host or cells: baculovirus; Tn5 (Trichoplusia ni) or TiniPro insect cells
Summary of the method: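 p110β full-length/p85 iSH2 construct (BV-949), 25 nM, with 1 μM ATP and 10 μg/mL phosphatidylinositol in 10 mM Tris pH 7.5, 3 mM MgCl2, 50 mM NaCl, 0.05% CHAPS, 1 mM DTT. 60 min at room temperature; ATP remaining read by Kinase-Glo luminescence. IC50 from 8-point four-parameter logistic fit.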

T2 sequence (O00329 with tags, fused parts or gaps limits assumed): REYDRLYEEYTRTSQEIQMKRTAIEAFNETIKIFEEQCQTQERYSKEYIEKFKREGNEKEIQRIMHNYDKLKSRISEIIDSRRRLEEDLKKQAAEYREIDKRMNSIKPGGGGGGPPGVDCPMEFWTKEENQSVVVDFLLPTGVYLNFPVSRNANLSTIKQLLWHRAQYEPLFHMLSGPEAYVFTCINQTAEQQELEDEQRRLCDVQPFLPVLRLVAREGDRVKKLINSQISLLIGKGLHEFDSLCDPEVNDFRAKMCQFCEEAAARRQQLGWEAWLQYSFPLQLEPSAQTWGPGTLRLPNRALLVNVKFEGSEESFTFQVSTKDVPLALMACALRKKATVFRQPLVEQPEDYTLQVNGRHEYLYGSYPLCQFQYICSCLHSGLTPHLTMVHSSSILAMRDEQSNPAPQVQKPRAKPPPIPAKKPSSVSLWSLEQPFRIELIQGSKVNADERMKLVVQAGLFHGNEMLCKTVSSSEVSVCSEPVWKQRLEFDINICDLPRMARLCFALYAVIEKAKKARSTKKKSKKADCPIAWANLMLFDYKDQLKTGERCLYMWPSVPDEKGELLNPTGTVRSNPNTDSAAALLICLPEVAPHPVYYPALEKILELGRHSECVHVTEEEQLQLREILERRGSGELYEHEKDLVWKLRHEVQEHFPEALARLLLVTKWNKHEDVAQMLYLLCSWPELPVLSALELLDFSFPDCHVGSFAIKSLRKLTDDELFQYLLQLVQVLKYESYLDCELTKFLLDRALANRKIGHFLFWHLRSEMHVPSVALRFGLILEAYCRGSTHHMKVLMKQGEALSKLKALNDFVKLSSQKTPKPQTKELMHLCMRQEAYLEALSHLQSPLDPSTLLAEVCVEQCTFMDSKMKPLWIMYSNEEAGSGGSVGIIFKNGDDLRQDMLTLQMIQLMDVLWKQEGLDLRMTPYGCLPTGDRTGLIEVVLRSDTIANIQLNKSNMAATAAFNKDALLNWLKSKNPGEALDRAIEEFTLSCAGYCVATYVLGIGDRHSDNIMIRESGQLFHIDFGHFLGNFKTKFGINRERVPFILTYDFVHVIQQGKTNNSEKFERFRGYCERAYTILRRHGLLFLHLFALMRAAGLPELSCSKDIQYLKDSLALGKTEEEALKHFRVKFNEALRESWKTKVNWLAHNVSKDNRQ
T1 sequence (P42336 with tags, fused parts or gaps limits assumed): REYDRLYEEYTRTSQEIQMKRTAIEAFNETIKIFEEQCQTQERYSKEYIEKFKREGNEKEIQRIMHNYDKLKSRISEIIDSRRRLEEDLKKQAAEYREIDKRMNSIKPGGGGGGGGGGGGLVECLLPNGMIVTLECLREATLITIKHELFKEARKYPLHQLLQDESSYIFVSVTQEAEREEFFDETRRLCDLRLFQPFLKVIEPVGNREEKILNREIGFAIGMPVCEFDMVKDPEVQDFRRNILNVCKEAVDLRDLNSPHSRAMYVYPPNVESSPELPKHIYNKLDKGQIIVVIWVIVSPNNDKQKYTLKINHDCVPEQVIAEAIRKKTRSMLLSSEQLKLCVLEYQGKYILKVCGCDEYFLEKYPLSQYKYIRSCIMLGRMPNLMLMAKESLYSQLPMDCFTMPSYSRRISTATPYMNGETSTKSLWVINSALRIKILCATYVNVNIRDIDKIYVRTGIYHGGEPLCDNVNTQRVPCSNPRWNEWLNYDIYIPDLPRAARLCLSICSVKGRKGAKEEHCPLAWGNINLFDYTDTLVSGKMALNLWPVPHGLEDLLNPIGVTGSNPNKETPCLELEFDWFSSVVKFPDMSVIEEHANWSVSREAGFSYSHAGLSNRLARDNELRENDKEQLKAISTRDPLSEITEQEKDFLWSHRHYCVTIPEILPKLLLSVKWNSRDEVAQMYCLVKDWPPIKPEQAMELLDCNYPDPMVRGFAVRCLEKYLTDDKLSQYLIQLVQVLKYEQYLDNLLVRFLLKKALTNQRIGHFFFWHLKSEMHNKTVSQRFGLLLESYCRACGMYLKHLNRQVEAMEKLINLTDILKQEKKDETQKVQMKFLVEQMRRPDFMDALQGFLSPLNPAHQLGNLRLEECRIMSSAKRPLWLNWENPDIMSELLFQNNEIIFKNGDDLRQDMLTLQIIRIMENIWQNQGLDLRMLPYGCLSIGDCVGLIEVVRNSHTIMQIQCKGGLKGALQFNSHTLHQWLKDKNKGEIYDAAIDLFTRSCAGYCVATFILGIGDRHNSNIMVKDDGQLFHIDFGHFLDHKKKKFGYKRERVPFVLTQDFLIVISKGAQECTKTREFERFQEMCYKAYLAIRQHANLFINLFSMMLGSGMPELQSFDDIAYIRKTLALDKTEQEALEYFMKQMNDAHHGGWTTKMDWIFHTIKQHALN
T4 sequence (P42338 with tags, fused parts or gaps limits assumed): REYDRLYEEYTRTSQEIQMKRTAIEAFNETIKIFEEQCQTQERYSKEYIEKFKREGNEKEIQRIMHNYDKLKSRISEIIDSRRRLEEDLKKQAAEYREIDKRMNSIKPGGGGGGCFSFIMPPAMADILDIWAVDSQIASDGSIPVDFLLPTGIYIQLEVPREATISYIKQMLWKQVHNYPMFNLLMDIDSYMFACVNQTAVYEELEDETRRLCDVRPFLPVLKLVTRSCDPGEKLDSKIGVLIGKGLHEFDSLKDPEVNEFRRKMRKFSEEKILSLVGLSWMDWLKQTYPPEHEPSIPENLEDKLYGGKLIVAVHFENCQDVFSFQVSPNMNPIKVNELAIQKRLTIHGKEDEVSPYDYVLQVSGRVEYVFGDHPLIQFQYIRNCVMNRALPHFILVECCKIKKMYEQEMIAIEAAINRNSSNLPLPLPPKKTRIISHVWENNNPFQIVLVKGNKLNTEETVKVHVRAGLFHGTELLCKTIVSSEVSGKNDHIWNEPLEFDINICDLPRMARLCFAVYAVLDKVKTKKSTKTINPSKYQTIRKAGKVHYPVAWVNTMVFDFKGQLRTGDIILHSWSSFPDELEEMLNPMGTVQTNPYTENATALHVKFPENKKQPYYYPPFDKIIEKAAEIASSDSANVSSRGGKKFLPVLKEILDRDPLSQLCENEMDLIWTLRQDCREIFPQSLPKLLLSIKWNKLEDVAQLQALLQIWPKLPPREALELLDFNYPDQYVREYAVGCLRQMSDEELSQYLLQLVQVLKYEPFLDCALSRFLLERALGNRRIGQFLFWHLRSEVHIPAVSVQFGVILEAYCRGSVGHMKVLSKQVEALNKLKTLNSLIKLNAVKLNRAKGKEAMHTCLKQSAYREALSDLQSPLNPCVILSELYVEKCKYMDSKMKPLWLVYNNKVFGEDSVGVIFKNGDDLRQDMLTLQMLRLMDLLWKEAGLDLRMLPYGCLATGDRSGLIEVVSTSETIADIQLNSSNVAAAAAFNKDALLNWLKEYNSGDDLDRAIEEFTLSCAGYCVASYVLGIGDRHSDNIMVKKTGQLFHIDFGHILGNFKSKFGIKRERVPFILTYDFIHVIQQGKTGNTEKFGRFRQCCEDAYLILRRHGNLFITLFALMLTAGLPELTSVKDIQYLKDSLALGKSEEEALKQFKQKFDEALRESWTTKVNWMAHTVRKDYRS
T3 sequence (P48736 144-1102 limits assumed): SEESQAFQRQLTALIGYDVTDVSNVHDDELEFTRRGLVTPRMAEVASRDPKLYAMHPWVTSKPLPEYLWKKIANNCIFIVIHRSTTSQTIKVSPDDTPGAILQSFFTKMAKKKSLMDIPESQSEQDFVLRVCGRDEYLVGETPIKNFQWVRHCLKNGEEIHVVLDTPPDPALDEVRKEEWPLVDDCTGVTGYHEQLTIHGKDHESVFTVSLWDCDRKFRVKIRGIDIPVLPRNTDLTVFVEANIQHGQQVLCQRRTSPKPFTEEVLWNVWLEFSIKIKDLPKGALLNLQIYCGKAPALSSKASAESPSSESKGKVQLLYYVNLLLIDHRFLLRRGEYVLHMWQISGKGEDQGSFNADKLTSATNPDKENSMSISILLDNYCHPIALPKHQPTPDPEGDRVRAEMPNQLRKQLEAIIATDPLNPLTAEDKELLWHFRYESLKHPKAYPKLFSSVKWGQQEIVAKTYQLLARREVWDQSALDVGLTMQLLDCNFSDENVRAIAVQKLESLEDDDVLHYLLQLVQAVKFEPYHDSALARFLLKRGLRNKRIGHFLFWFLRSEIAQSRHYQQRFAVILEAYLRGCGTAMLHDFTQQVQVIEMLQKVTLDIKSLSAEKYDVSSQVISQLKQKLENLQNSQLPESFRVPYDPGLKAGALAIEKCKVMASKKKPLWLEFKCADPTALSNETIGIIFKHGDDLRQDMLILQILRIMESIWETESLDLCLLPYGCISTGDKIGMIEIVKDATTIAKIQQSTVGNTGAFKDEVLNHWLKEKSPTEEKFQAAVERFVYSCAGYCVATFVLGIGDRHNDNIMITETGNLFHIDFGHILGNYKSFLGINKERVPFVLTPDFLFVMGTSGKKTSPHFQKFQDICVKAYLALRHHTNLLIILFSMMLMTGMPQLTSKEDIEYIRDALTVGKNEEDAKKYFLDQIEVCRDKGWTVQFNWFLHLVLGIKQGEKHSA

| IC50 (PI3K alpha) | IC50 (PI3K delta) | IC50 (PI3K gamma) | IC50 (PI3K beta) | SMILES |
| --- | --- | --- | --- | --- |
| 9 nM | 3 nM | – | 37 nM | CCOCc1cc(-c2ccc3ncc4c(c3c2)n(-c2cn(C)nc2C)c(=O)n4C)cnc1N [Example 166.1, 8-(6-Amino-5-ethoxymethyl-pyridin-3-yl)-1-(1,3-dimethyl-1H-pyrazol-4-yl)-3-methyl-1,3-dihydro-imidazo[4,5-c]quinolin-2-one] |
| 5 nM | < 3 nM | – | 7 nM | Cn1cc(-n2c(=O)n(C)c3cnc4ccc(-c5cnc(N)c(CO)c5)cc4c32)c(Cl)n1 [Example 169.3, 8-(6-Amino-5-hydroxymethyl-pyridin-3-yl)-1-(3-chloro-1-methyl-1H-pyrazol-4-yl)-3-methyl-1,3-dihydro-imidazo[4,5-c]quinolin-2-one] |
| 44 nM | 126 nM | – | 559 nM | Cc1nn(CCO)cc1-n1c(=O)n(C)c2cnc3ccc(-c4cncc(N5CCOCC5)c4)cc3c21 [Example 175.3, 1-[1-(2-Hydroxy-ethyl)-3-methyl-1H-pyrazol-4-yl]-3-methyl-8-(5-morpholin-4-yl-pyridin-3-yl)-1,3-dihydro-imidazo[4,5-c]quinolin-2-one] |
| 6 nM | 9 nM | – | 17 nM | CCOc1cc(-c2ccc3ncc4c(c3c2)n(-c2cn(CCO)nc2C)c(=O)n4C)cnc1C [Example 211.2, 8-(5-Ethoxy-6-methyl-pyridin-3-yl)-1-[1-(2-hydroxy-ethyl)-3-methyl-1H-pyrazol-4-yl]-3-methyl-1,3-dihydro-imidazo[4,5-c]quinolin-2-one] |
| 6 nM | 10 nM | – | 12 nM | CCn1cc(-n2c(=O)n(C)c3cnc4ccc(-c5cncc(C(C)(C)O)c5)cc4c32)c(C)n1 [Example 215.4, 1-(1-Ethyl-3-methyl-1H-pyrazol-4-yl)-8-[5-(1-hydroxy-1-methyl-ethyl)-pyridin-3-yl]-3-methyl-1,3-dihydro-imidazo[4,5-c]quinolin-2-one] |
| 15 nM | 29 nM | – | 62 nM | CNC(=O)c1cc(-c2ccc3ncc4c(c3c2)n(-c2cn(C)nc2C)c(=O)n4C)cnc1N [Example 224.1, 2-Amino-5-[1-(1,3-dimethyl-1H-pyrazol-4-yl)-3-methyl-2-oxo-2,3-dihydro-1H-imidazo[4,5-c]quinolin-8-yl]-N-methyl-nicotinamide] |
| 23 nM | 10 nM | – | 67 nM | CCNC(=O)c1cc(-c2ccc3ncc4c(c3c2)n(-c2cn(C)nc2C)c(=O)n4C)cnc1NC [Example 242.1, 5-[1-(1,3-Dimethyl-1H-pyrazol-4-yl)-3-methyl-2-oxo-2,3-dihydro-1H-imidazo[4,5-c]quinolin-8-yl]-N-ethyl-2-methylamino-nicotinamide] |

More lines, now with the values behind:

| SMILES | IC50 (PI3K alpha) | IC50 (PI3K delta) | IC50 (PI3K gamma) | IC50 (PI3K beta) |
| --- | --- | --- | --- | --- |
| CCOc1ccc(-c2ccc3ncc4c(c3c2)n(-c2cn(CC(=O)N3CCOCC3)nc2C)c(=O)n4C)cn1 [Example 3.10, 8-(6-Ethoxy-pyridin-3-yl)-3-methyl-1-[3-methyl-1-(2-morpholin-4-yl-2-oxo-ethyl)-1H-pyrazol-4-yl]-1,3-dihydro-imidazo[4,5-c]quinolin-2-one] | 91 nM | 431 nM | 867 nM | – |
| CCNc1cc(-c2ccc3ncc4c(c3c2)n(-c2c(C)nn(C)c2C)c(=O)n4C)cnc1CO [Example 155.4, 8-(5-Ethylamino-6-hydroxymethyl-pyridin-3-yl)-3-methyl-1-(1,3,5-trimethyl-1H-pyrazol-4-yl)-1,3-dihydro-imidazo[4,5-c]quinolin-2-one] | 125 nM | 11 nM | – | 55 nM |
| CCNc1cc(-c2ccc3ncc4c(c3c2)n(-c2cn(CC)nc2C)c(=O)n4C)cnc1COC [Example 157, 8-(5-Ethylamino-6-methoxymethyl-pyridin-3-yl)-1-(1-ethyl-3-methyl-1H-pyrazol-4-yl)-3-methyl-1,3-dihydro-imidazo[4,5-c]quinolin-2-one] | 7 nM | 9 nM | – | 28 nM |
| CCNc1cc(-c2ccc3ncc4c(c3c2)n(-c2cn(C)nc2C)c(=O)n4C)cnc1CC [Example 161, 1-(1,3-Dimethyl-1H-pyrazol-4-yl)-8-(6-ethyl-5-ethylamino-pyridin-3-yl)-3-methyl-1,3-dihydro-imidazo[4,5-c]quinolin-2-one] | 9 nM | 8 nM | – | 18 nM |
| CCc1ncc(-c2ccc3ncc4c(c3c2)n(-c2cn(C)nc2C)c(=O)n4C)cc1NC(C)C [Example 162, 1-(1,3-Dimethyl-1H-pyrazol-4-yl)-8-(6-ethyl-5-isopropylamino-pyridin-3-yl)-3-methyl-1,3-dihydro-imidazo[4,5-c]quinolin-2-one] | 8 nM | 10 nM | – | 20 nM |
| CCN(C)c1cncc(-c2ccc3ncc4c(c3c2)n(-c2cn(C)nc2C)c(=O)n4C)c1 [Example 176, 1-(1,3-Dimethyl-1H-pyrazol-4-yl)-8-[5-(ethyl-methyl-amino)-pyridin-3-yl]-3-methyl-1,3-dihydro-imidazo[4,5-c]quinolin-2-one] | 17 nM | 15 nM | – | 33 nM |
| Cc1nn(C)cc1-n1c(=O)n(C)c2cnc3ccc(-c4cncc(OC(F)F)c4)cc3c21 [Example 183, 8-(5-Difluoromethoxy-pyridin-3-yl)-1-(1,3-dimethyl-1H-pyrazol-4-yl)-3-methyl-1,3-dihydro-imidazo[4,5-c]quinolin-2-one] | 3 nM | 4 nM | – | 4 nM |
| COc1cc(-c2ccc3ncc4c(c3c2)n(-c2cn(C)nc2C)c(=O)n4C)cnc1C [Example 184, 1-(1,3-Dimethyl-1H-pyrazol-4-yl)-8-(5-methoxy-6-methyl-pyridin-3-yl)-3-methyl-1,3-dihydro-imidazo[4,5-c]quinolin-2-one] | 4 nM | 4 nM | – | 10 nM |
| Cc1nn(CC(=O)N2CCC2)cc1-n1c(=O)n(C)c2cnc3ccc(-c4cncc(OC(C)C)c4)cc3c21 [Example 205, 1-[1-(2-Azetidin-1-yl-2-oxo-ethyl)-3-methyl-1H-pyrazol-4-yl]-8-(5-isopropoxy-pyridin-3-yl)-3-methyl-1,3-dihydro-imidazo[4,5-c]quinolin-2-one] | 5 nM | 12 nM | – | 17 nM |
| Cc1nn(C)cc1-n1c(=O)[nH]c2cnc3ccc(-c4cnc(N(C)C)nc4)cc3c21 [Example 207, 8-(2-Dimethylamino-pyrimidin-5-yl)-1-(1,3-dimethyl-1H-pyrazol-4-yl)-1,3-dihydro-imidazo[4,5-c]quinolin-2-one] | 14 nM | 29 nM | – | 167 nM |
| CCNc1cc(-c2ccc3ncc4c(c3c2)n(-c2c(C)nn(CCO)c2C)c(=O)n4C)cnc1C [Example 210, 8-(5-Ethylamino-6-methyl-pyridin-3-yl)-1-[1-(2-hydroxy-ethyl)-3,5-dimethyl-1H-pyrazol-4-yl]-3-methyl-1,3-dihydro-imidazo[4,5-c]quinolin-2-one] | 24 nM | 13 nM | – | 49 nM |
| Cc1nn(C)cc1-n1c(=O)n(C)c2cnc3ccc(-c4cnc5c(c4)C(C)(C)C(=O)N5C)cc3c21 [Example 233, 1-(1,3-Dimethyl-1H-pyrazol-4-yl)-3-methyl-8-(1,3,3-trimethyl-2-oxo-2,3-dihydro-1H-pyrrolo[2,3-b]pyridin-5-yl)-1,3-dihydro-imidazo[4,5-c]quinolin-2-one] | 22 nM | 15 nM | – | 39 nM |
| COC(C)(C)c1cncc(-c2ccc3ncc4c(c3c2)n(-c2cn(C)nc2C)c(=O)n4C)c1 [Example 239, 1-(1,3-Dimethyl-1H-pyrazol-4-yl)-8-[5-(1-methoxy-1-methyl-ethyl)-pyridin-3-yl]-3-methyl-1,3-dihydro-imidazo[4,5-c]quinolin-2-one] | 10 nM | 3 nM | – | 13 nM |
| CCOc1cc(-c2ccc3ncc4c(c3c2)n(-c2cn(C)nc2C)c(=O)n4C)cnc1CO [Example 243, 1-(1,3-Dimethyl-1H-pyrazol-4-yl)-8-(5-ethoxy-6-hydroxymethyl-pyridin-3-yl)-3-methyl-1,3-dihydro-imidazo[4,5-c]quinolin-2-one] | 11 nM | 7 nM | – | 47 nM |
| COCCOc1cc(-c2ccc3ncc4c(c3c2)n(-c2cn(C)nc2C)c(=O)n4C)cnc1CO [Example 244, 1-(1,3-Dimethyl-1H-pyrazol-4-yl)-8-[6-hydroxymethyl-5-(2-methoxy-ethoxy)-pyridin-3-yl]-3-methyl-1,3-dihydro-imidazo[4,5-c]quinolin-2-one] | 30 nM | 17 nM | – | 188 nM |
